Test results published in patent US7109243B2 (IRM LLC, priority 2003, dated 2006).

Key:
Cathepsin S = Cathepsin S (Homo sapiens, UniProt P25774); experiment: Cathepsin S inhibition assay (fluorogenic peptide substrate); assay type: biochemical; conditions: Table II, compounds of Formula I; read-out: Ki Cat. S
In short: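 Ki values come from nonlinear fitting of inhibited hydrolysis rates, taking free and total inhibitor concentrations as equal. Rates measured as rising fluorescence at 380/450 nm after reaction start with 50 μM final acetyl-HPVK-aminocarbamoylcoumarin.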

Cathepsin K = target: T1, Cathepsin K (Homo sapiens, UniProt P43235); experiment: Cathepsin K inhibition assay (fluorogenic peptide substrate); selectivity ratio vs cathepsin S; assay type: biochemical; conditions: ratio of cathepsin K inhibition constant to cathepsin S inhibition constant; Table II
T1 sequence (P43235 115-329): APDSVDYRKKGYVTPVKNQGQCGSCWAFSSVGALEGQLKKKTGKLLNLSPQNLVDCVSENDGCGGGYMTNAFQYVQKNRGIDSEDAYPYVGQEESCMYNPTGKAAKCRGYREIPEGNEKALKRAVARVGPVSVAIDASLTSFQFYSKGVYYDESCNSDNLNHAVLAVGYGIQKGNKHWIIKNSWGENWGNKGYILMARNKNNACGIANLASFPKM
In short: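 Inhibition constants for competitive inhibitors come from apparent values fitted to enzyme progress curves. Substrate, acetyl-Lys-His-Pro-Lys-aminocarbamoylcoumarin (40 μM final), starts the reaction; fluorescence rise read at 380 nm excitation, 450 nm emission. Selectivity ratio: other cathepsin constant over cathepsin S constant.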

Sequence of Cathepsin S (P25774 115-331, species assumed): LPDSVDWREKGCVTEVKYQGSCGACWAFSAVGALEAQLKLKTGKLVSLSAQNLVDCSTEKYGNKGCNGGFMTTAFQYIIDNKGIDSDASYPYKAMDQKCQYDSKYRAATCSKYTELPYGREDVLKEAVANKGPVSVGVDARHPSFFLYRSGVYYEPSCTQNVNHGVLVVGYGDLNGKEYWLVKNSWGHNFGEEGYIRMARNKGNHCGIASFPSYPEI

Row | Compound | Ki (Cathepsin S) [nM] | Selectivity for Cat. S over Cat. K (Cathepsin K)
1 | N#Cc1cccc(C(=O)N[C@@H](CC2CCCCC2)C(=O)NCCNc2ccc(F)cc2)c1 [Compound 321, 3-Cyano-N-(S)-{2-cyclohexyl-1-[2-(4-fluoro-phenylamino)-ethylcarbamoyl]-ethyl}-benzamide] | < 1000 | ++ (++, >100)
2 | O=C(N[C@@H](CC1CCCCC1)C(=O)NCCNc1ccc(OC(F)(F)F)cc1)c1ccc(-c2cc(C(F)(F)F)ccc2Cl)o1 [Compound 251, (S)-5-(2-Chloro-5-trifluoromethyl-phenyl)-furan-2-carboxylic acid {2-cyclohexyl-1-[2-(4-trifluoromethoxy-phenylamino)-ethylcarbamoyl]-ethyl}-amide] | < 100 | +++ (+++, >1000)
3 | O=C(N[C@@H](CC1CCCCC1)C(=O)NCCNc1ccc(OC(F)(F)F)cc1)c1csc(-c2ccccc2)n1 [Compound 54, 2-Phenyl-thiazole-4-carboxylic acid (S)-{2-cyclohexyl-1-[2-(4-trifluoromethoxy-phenylamino)-ethylcarbamoyl]-ethyl}-amide] | < 100 | + (+, >10)
4 | COc1ccc(NCCNC(=O)[C@H](CC2CCCCC2)NC(=O)c2ccc(Br)o2)cc1 [Compound 177, (S)-5-Bromo-furan-2-carboxylic acid {2-cyclohexyl-1-[2-(4-methoxy-phenylamino)-ethylcarbamoyl]-ethyl}-amide] | < 100 | ++ (++, >100)
5 | COc1ccc(NCCNC(=O)[C@H](Cc2ccccc2)NC(=O)c2cc(C)c(OCc3ccccc3)c(C)c2)cc1 [Compound 20, (S)-4-Benzyloxy-N-{1-[2-(4-methoxy-phenylamino)-ethylcarbamoyl]-2-phenyl-ethyl}-3,5-dimethyl-benzamide] | < 1000 | ++ (++, >100)
6 | COc1ccc(NCCNC(=O)[C@H](Cc2ccc(-c3cnc(OC)nc3OC)cc2)NC(=O)c2cccc(C)c2)cc1 [Compound 291, (S)-N-{2-[4-(2,4-Dimethoxy-pyrimidin-5-yl)-phenyl]-1-[2-(4-methoxy-phenylamino)-ethylcarbamoyl]-ethyl}-3-methyl-benzamide] | < 1000 | ++ (++, >100)
7 | COc1ccc(NCCNC(=O)[C@H](Cc2ccc(Oc3cccc(C)c3C)cc2)NC(=O)c2cccc(C)c2)cc1 [Compound 7, (S)-N-{2-[4-(2,3-Dimethyl-phenoxy)-phenyl]-1-[2-(4-methoxy-phenylamino)-ethylcarbamoyl]-ethyl}-3-methyl-benzamide] | < 1000 | ++ (++, >100)
8 | COc1ccc(NCCNC(=O)[C@H](CC2CCCCC2)NC(=O)c2cccc(C(F)(F)F)c2F)cc1 [Compound 166, (S)-N-{2-Cyclohexyl-1-[2-(4-methoxy-phenylamino)-ethylcarbamoyl]-ethyl}-2-fluoro-3-trifluoromethyl-benzamide] | < 100 | +++ (+++, >1000)
9 | COc1ccc(NCCNC(=O)[C@H](CC2CCCCC2)NC(=O)c2cc(OC)cc(OC)c2)cc1 [Compound 180, (S)-N-{2-Cyclohexyl-1-[2-(4-methoxy-phenylamino)-ethylcarbamoyl]-ethyl}-3,5-dimethoxy-benzamide] | < 100 | + (+, >10)
10 | COc1ccc(NCCNC(=O)C(NC(=O)c2cccc(C)c2)C(C)c2ccc([N+](=O)[O-])cc2)cc1 (stereo not shown) [Compound 266, N-[1-[2-(4-Methoxy-phenylamino)-ethylcarbamoyl]-2-(4-nitro-phenyl)-propyl]-3-methyl-benzamide] | < 1000 | + (+, >10)
11 | O=C(Cc1cccc(F)c1)N[C@@H](CC1CCCCC1)C(=O)NCCNc1ccc(F)cc1 [Compound 260, 3-Cyclohexyl-2-(S)-[2-(3-fluoro-phenyl)-acetylamino]-N-[2-(4-fluoro-phenylamino)-ethyl]-propionamide] | < 100 | ++ (++, >100)
12 | COc1ccc(NCCNC(=O)[C@H](Cc2ccc(I)cc2)NC(=O)c2cccc(C)c2)cc1 [Compound 242, (S)-N-{2-(4-Iodo-phenyl)-1-[2-(4-methoxy-phenylamino)-ethylcarbamoyl]-ethyl}-3-methyl-benzamide] | < 100 | +++ (+++, >1000)
13 | COc1ccc(NCCNC(=O)[C@H](CCC2CCCCC2)NC(=O)c2cc3cc(Cl)ccc3[nH]2)cc1 [Compound 131, (S)-5-Chloro-1H-indole-2-carboxylic acid {3-cyclohexyl-1-[2-(4-methoxy-phenylamino)-ethylcarbamoyl]-propyl}-amide] | < 10000 | + (+, >10)
14 | COc1ccc(NCCNC(=O)[C@H](CC2CCCCC2)NC(=O)c2cccc(CN)c2)cc1 [Compound 199, (S)-3-Aminomethyl-N-{2-cyclohexyl-1-[2-(4-methoxy-phenylamino)-ethylcarbamoyl]-ethyl}-benzamide] | < 1000 | ++ (++, >100)
15 | C[C@@H](C(=O)N[C@@H](CC1CCCCC1)C(=O)NCCNc1ccc(OC(F)(F)F)cc1)c1ccccc1 [Compound 122, N-{2-cyclohexyl-1-(S)-[2-(4-trifluoromethoxy-phenylamino)-ethylcarbamoyl]-ethyl}-2-(R)-phenyl-propionamide] | < 100 | +++ (+++, >1000)
16 | O=C(Cc1cccc(C(F)(F)F)c1)N[C@@H](CC1CCCCC1)C(=O)NCCNc1ccc(F)cc1 [Compound 323, 3-Cyclohexyl-N-[2-(4-fluoro-phenylamino)-ethyl]-2-(S)-[2-(3-trifluoromethyl-phenyl)-acetylamino]-propionamide] | < 100 | ++ (++, >100)
17 | COc1ccc(NCCNC(=O)[C@H](Cc2ccc(Oc3ccc(OC)cc3)cc2)NC(=O)c2cccc(C)c2)cc1 [Compound 328, (S)-N-{2-[4-(4-Methoxy-phenoxy)-phenyl]-1-[2-(4-methoxy-phenylamino)-ethylcarbamoyl]-ethyl}-3-methyl-benzamide] | < 1000 | ++ (++, >100)
18 | COc1ccc(NCCNC(=O)[C@H](Cc2cccc(Cl)c2)NC(=O)c2ccc(-c3cccc(C(F)(F)F)c3)o2)cc1 [Compound 3, N-((S)-1-(2-(4-methoxyphenylamino)ethylcarbamoyl)-2-(3-chlorophenyl)ethyl)-5-(3-(trifluoromethyl)phenyl)furan-2-carboxamide] | < 100 | +++ (+++, >1000)
19 | COc1ccc(NCCNC(=O)[C@H](Cc2ccccc2Cl)NC(=O)c2ccc(-c3cccc(C(F)(F)F)c3)o2)cc1 [Compound 2, N-((S)-1-(2-(4-methoxyphenylamino)ethylcarbamoyl)-2-(2-chlorophenyl)ethyl)-5-(3-(trifluoromethyl)phenyl)furan-2-carboxamide] | < 100 | + (+, >10)
20 | COc1ccc(NCCNC(=O)[C@H](Cc2ccccc2)NC(=O)Nc2ccc(C(C)=O)cc2)cc1 [Compound 103, (S)-2-[3-(4-Acetyl-phenyl)-ureido]-N-[2-(4-methoxy-phenylamino)-ethyl]-3-phenyl-propionamide] | < 1000 | ++ (++, >100)
